Key:
[1] = biological target: T1, human STAT6/pIL-4Rα (Homo sapiens, UniProt P42226); assay: Binding inhibitory activity between human STAT6/pIL-4Rα by fluorescence polarization method; details: rhSTAT6 (123-658) / FAM-pIL-4Rα peptide
T1 construct: histidine tag
T1 sequence (P42226 123-658): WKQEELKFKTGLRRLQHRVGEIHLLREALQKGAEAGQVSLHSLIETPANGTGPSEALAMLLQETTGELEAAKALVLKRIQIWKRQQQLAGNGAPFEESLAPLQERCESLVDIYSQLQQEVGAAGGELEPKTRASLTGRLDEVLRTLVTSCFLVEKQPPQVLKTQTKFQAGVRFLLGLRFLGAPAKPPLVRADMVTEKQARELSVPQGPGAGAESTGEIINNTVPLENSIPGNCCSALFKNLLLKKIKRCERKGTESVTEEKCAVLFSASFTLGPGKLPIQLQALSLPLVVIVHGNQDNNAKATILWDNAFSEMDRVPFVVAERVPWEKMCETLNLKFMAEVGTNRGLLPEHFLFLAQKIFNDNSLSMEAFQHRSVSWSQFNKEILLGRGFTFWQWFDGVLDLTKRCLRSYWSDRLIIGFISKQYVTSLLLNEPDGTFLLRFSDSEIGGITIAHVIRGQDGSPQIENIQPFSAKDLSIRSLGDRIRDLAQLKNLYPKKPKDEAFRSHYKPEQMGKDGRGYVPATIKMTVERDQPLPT
In short: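 His-tagged human STAT6 (residues 123–658, E. coli-expressed) was preincubated with compound for 30 min at RT in the dark, in buffer e.g. 50 mM NaCl, 10 mM HEPES pH 7.0, 1 mM DTT, 1 mM EDTA, 0.01% NP-40. FAM-pIL-4Rα peptide was then added for 30 min. Fluorescence polarisation was read at 485/535 nm, with IC50 interpolated linearly between two points flanking 50%.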

[2] = system: human STAT6; assay: Human STAT6 dependent reporter activity (IL-4 stimulated STAT6 reporter assay using STAT6-HEK293 cells); format: cell-based; details: Homo sapiens, IL-4 stimulation, luciferase activity, read-out: Inhibition rate (%); for inhibition at 0.1 µM: compound 0.1 μmol/L; for inhibition at 1 µM: compound 1 μmol/L

With Cc1nn(C)c(=O)n1-c1ccc(-c2cc3cc(C(F)(F)F)cc(C(=O)Nc4ccc(F)c(C(N)=O)c4)c3n2CC2(C#N)CC2)cc1 [Ex. 124] as the compound, how does the IC50 [1] read?
Its IC50 is 450 nM.

And the inhibition at 0.1 µM [2]?
Its inhibition at 0.1 µM is 57%.

And the inhibition at 1 µM [2]?
Its inhibition at 1 µM is 99%.

COCCn1c(-c2ccc(-n3c(C)nn(C)c3=O)cc2)cc2cc(C(F)(F)F)cc(C(=O)Nc3cccc(C(=O)Nc4ccn(CC5CC5)n4)c3)c21 [Ex. 180] was tested. Which IC50 [1] did it give?
The IC50 was 300 nM.

What about the inhibition at 0.1 µM [2] of the same compound?
The inhibition at 0.1 µM was 100%.

What does the source list for COCCn1c(-c2ccc(-n3c(C)nn(C)c3=O)cc2)cc2cc(C(F)(F)F)cc(C(=O)Nc3cccc(COC)n3)c21 [Ex. 100]?
IC50 [1]: 300 nM; inhibition at 0.1 µM [2]: 85%

Which results are given for CCn1c(-c2ccc(-n3c(C)nn(C)c3=O)cc2F)cc2cc(C(F)(F)F)cc(C(=O)Nc3ccc(F)c(C(N)=O)c3)c21 [Ex. 72]?
IC50 [1]: 340 nM; inhibition at 0.1 µM [2]: 65%; inhibition at 1 µM [2]: 97%

For COCCn1c(-c2ccc(-n3c(C)nn(C)c3=O)cc2)cc2cc(C(F)(F)F)nc(C(=O)Nc3ccc(F)c(C(N)=O)c3)c21 [Ex. 90], which IC50 [1] is on record?
Its IC50 is 280 nM.

And the inhibition at 0.1 µM [2]?
Its inhibition at 0.1 µM is 63%.

What about the inhibition at 1 µM [2] of the same compound?
Its inhibition at 1 µM is 99%.

CCn1c(-c2ccc(-n3c(C)nn(C)c3=O)cc2)cc2cc(C(F)(F)F)cc(C(=O)Nc3cccc(C(=O)NC)c3)c21 [Ex. 40] was tested. Which IC50 [1] did it give?
Its IC50 is 290 nM.

What about the inhibition at 0.1 µM [2] of the same compound?
The inhibition at 0.1 µM was 92%.

And the inhibition at 1 µM [2]?
The inhibition at 1 µM was 100%.

CCn1c(-c2ccc(-n3cnn(C)c3=O)cc2)cc2ccnc(C(=O)Nc3ccc(F)c(C(N)=O)c3)c21 [Ex. 25] was tested. Which IC50 [1] did it give?
The IC50 was 280 nM.

And the inhibition at 0.1 µM [2]?
The inhibition at 0.1 µM was 64%.

What about the inhibition at 1 µM [2] of the same compound?
The inhibition at 1 µM was 97%.

With COCCn1c(-c2ccc(-n3c(C)nn(C)c3=O)cc2)cc2cc(C(F)(F)F)cc(C(=O)Nc3cccc(C(=O)Nc4cc(Cl)n(C)n4)c3)c21 [Ex. 176] as the compound, how does the IC50 [1] read?
The IC50 was 280 nM.

And the inhibition at 0.1 µM [2]?
Its inhibition at 0.1 µM is 93%.

How did the IC50 [1] turn out when CCn1c(-c2ccc(-n3ncn(C)c3=O)cc2)cc2cccc(C(=O)Nc3ccc(F)c(C(N)=O)c3)c21 [Ex. 156] was run?
Its IC50 is 400 nM.

And the inhibition at 0.1 µM [2]?
Its inhibition at 0.1 µM is 46%.

What about the inhibition at 1 µM [2] of the same compound?
Its inhibition at 1 µM is 99%.

Which results are given for COCCn1c(-c2ccc(-n3c(C)nn(C)c3=O)cc2)c(Cl)c2cc(C(F)(F)F)cc(C(=O)Nc3ccc(F)c(C(N)=O)c3)c21 [Ex. 143]?
IC50 [1]: 390 nM; inhibition at 0.1 µM [2]: 87%; inhibition at 1 µM [2]: 99%

What does the source list for CCn1c(-c2ccc(-n3c(C)nn(C)c3=O)cc2)cc2c(F)ccc(C(=O)Nc3cccc(C(N)=O)c3F)c21 [Ex. 77]?
IC50 [1]: 590 nM; inhibition at 0.1 µM [2]: 73%; inhibition at 1 µM [2]: 99%

For CCn1c(-c2ccc(-n3c(C)nn(C)c3=O)cc2F)cc2ccnc(C(=O)Nc3cccc(C(N)=O)c3F)c21 [Ex. 98], which IC50 [1] is on record?
Its IC50 is 310 nM.

And the inhibition at 0.1 µM [2]?
The inhibition at 0.1 µM was 60%.

What about the inhibition at 1 µM [2] of the same compound?
Its inhibition at 1 µM is 100%.

CCn1c(-c2ccc(-n3c(C)nn(C)c3=O)cc2)cc2ccnc(C(=O)Nc3cccc(C(=O)Nc4cn(C)c(=O)n(C)c4=O)c3)c21 [Ex. 166] was tested. Which IC50 [1] did it give?
The IC50 was 350 nM.

What about the inhibition at 0.1 µM [2] of the same compound?
Its inhibition at 0.1 µM is 76%.

And the inhibition at 1 µM [2]?
Its inhibition at 1 µM is 99%.

What does the source list for CNC(=O)c1cccc(NC(=O)c2cc(C(F)(F)F)cc3cc(-c4ccc(-n5cnn(C)c5=O)cc4)n(CCOC)c23)c1 [Ex. 43]?
IC50 [1]: 250 nM; inhibition at 0.1 µM [2]: 93%; inhibition at 1 µM [2]: 100%

How did the IC50 [1] turn out when CC1CC(C)N(c2ccc(-c3cc4ccnc(C(=O)Nc5cccc(C(N)=O)c5F)c4n3CC3(C#N)CC3)cc2)C1=O (single isomer, unassigned) [Ex. 223] was run?
Its IC50 is 320 nM.

And the inhibition at 0.1 µM [2]?
Its inhibition at 0.1 µM is 67%.

With CNC(=O)c1cccc(NC(=O)c2cc(C(F)(F)F)cc3cc(-c4ccc(-n5c(C)nn(C)c5=O)cc4)n(CCOC)c23)n1 [Ex. 172] as the compound, how does the IC50 [1] read?
Its IC50 is 380 nM.

And the inhibition at 0.1 µM [2]?
Its inhibition at 0.1 µM is 17%.

What about the inhibition at 1 µM [2] of the same compound?
Its inhibition at 1 µM is 83%.

What does the source list for CCn1c(-c2ccc(N3C(=O)C(C)CC3C)cc2)cc2cc(C(F)(F)F)nc(C(=O)Nc3ccc(F)c(C(N)=O)c3)c21 (stereo not shown) [Ex. 135]?
IC50 [1]: 530 nM; inhibition at 0.1 µM [2]: 85%

For CCn1c(-c2ccc(N3CCOCC3=O)cc2)cc2ccnc(C(=O)Nc3ccc(F)c(C(=O)NCC#N)c3)c21 [Ex. 150], which IC50 [1] is on record?
The IC50 was 240 nM.

And the inhibition at 0.1 µM [2]?
Its inhibition at 0.1 µM is 38%.

What about the inhibition at 1 µM [2] of the same compound?
The inhibition at 1 µM was 89%.

COCCn1c(-c2ccc(N3C(=O)C(C)CC3C)cc2)cc2cc(C(F)(F)F)nc(C(=O)Nc3cccc(C(N)=O)c3)c21 (stereo not shown) [Ex. 132] was tested. Which IC50 [1] did it give?
The IC50 was 520 nM.

And the inhibition at 0.1 µM [2]?
The inhibition at 0.1 µM was 70%.

What about the inhibition at 1 µM [2] of the same compound?
Its inhibition at 1 µM is 96%.

Which results are given for CCn1c(-c2ccc(N3C(=O)C(C)CC3C)cc2)cc2cc(C(F)(F)F)cc(C(=O)Nc3ccc(F)c(C(N)=O)c3)c21 (stereo not shown) [Ex. 160]?
IC50 [1]: 410 nM; inhibition at 0.1 µM [2]: 93%; inhibition at 1 µM [2]: 100%

Source: US20260092054A1, “FUSED RING COMPOUND AND PHARMACEUTICAL CONTAINING SAME” (KAKEN PHARMACEUTICAL CO., LTD., priority 2022, published 2026)
